Source: patent US6825230B2, “Spiro and dispiro 1,2,4-trixolane antimalarials” (Medicines for Malaria Venture MMV, priority 2002, dated 2004)
Like-named read-outs stand apart in the source and are kept apart here.

Experiments:
[1] = system: ANKA strain of P. berghei; assay: Single dose STI in vivo screen in infected mice; set-up: species or system Plasmodium berghei; details: for Survival (days) 10 mg/kg SSV po: single 10 mg/kg po in SSV, untreated 6-7 days
P. berghei ANKA strain [2] = assay: Onset of action and recrudescence experiment, single 100 mg/kg po; format: in vivo, Plasmodium berghei; details: single 100 mg/kg po (SSV) on day +3 post-infection; recrudescence = >5% parasitemia; followed up to 60 days; groups of five
[3] = system: Schistosoma mansoni adult worms (49-day-old); assay: Effect on adult schistosomes (49-day-old) in infected mice; format: in vivo; details: single 400 mg/kg per os; for % reduction of adult worms growth at day 49 after per os application of 400 mg/kg, TWR (%): 49-day-old adults, total worm reduction rate; for Adult worms day 49, per os 400 mg/kg, DEAD WORM (%): percentage of dead worm in the liver
Description: Mice were infected with 100 Schistosoma mansoni cercariae on day 49 post-treatment. Each group was treated per os with OZ compounds at single doses of 200, 400, and 600 mg/kg. Untreated mice served as the control. All groups were killed 4 weeks after treatment and the liver and intestine were removed and separated. The liver and intestine were compressed and alive male and female worms could be seen and counted.

[4] = system: ANKA strain of Plasmodium berghei; assay: Single dose ED50/ED90/ED99 determination in infected mice; format: in vivo; details: for ED50: Plasmodium berghei
Method in brief: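 Moro SPF or NMRI mice (three per group) infected with P. berghei ANKA were dosed once on day 1 post-infection in SSV (0.5% CMC, 0.5% benzyl alcohol, 0.4% Tween 80, 0.9% NaCl). Parasitemia reduction was scored on day 3; ED values (mg/kg) came from nonlinear fitting.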

[5] = Pharmacokinetics in rats (IV and oral dosing); details: in vivo, rat
From the text: (§1) Artesunate is listed as a reference compound.

[6] = Pharmacokinetics in dogs (IV and oral dosing); details: in vivo, dog; for bioavailability: some values marked (V), not defined
From the text: as §1

P. berghei ANKA strain [7] = assay: Divided 3x10 mg/kg vs single 1x30 mg/kg po dose in infected mice; format: in vivo, Plasmodium berghei; details: for Survival (days) 3 × 10 mg/kg p.o. SSV / Activity (%) 3 × 10 mg/kg p.o. SSV: 10 mg/kg po on days 1, 2, 3 post-infection; for Activity (%) 3 × 10 mg/kg p.o. SSV / Activity (%) 1 × 30 mg/kg p.o. SSV: parasitemia reduction on day 4; for Survival (days) 1 × 30 mg/kg p.o. SSV / Activity (%) 1 × 30 mg/kg p.o. SSV: single 30 mg/kg po on day 1 post-infection; for Cures 1 × 30 mg/kg p.o. SSV: single 30 mg/kg po, cure = survival to day 30 post-infection
Description: (§2) Moro NMRI male mice (Fu Albino specific pathogen free) weighing 18±2 g were infected intravenously (i.v.) with 2×10^7 P. berghei ANKA strain-infected erythrocytes from donor mice on day 0 of the experiment. From donor mice with circa 30% parasitemia, heparinized blood was taken and diluted in physiological saline to 10^8 parasitized erythrocytes per ml. An aliquot (0.2 ml) of this suspension was injected i.v. into experimental and control groups of mice. […] Throughout the experiments, mice were kept in groups of three or five animals in Makrolon type II cages in an air-conditioned animal room at 22 to 23° C.
They were administered per os (p.o.) in a total volume of 0.01 ml per gram of mouse. The activity of the compound was determined by a variety of methods outlined in subsequent sections. Survival time was also recorded, and survival to day 30 post-infection was considered to be a cure.
The first experiment conducted consisted of administration of a divided 3×10 mg/kg p.o. dose administered on days 1, 2, and 3 post-infection vs. a single 1×30 mg/kg po dose administered on day 1 post-infection. On day 4 post-infection, blood smears of all animals were prepared and stained with Giemsa. […] Compounds were administered orally in the SSV vehicle.

P. berghei ANKA strain [8] = assay: Divided 3x3 mg/kg and 3x1 mg/kg po doses in infected mice; format: in vivo, Plasmodium berghei
Method in brief: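 Male NMRI mice were infected i.v. with 2×10^7 P. berghei-parasitized erythrocytes on day 0, then dosed orally in SSV vehicle on days 1, 2 and 3 post-infection.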

P. berghei ANKA strain [9] = assay: Prophylactic activity, single 100 mg/kg po at various times before infection; format: in vivo, Plasmodium berghei; details: for Prophylactic Activity (%) 24 h: single 100 mg/kg po 24 h before infection; for Prophylactic Activity (%) 48 h: single 100 mg/kg po 48 h before infection; for Prophylactic Activity (%) 0 h: single 100 mg/kg po at 0 h
Description: as §2
Prophylactic activities of the compounds were compared after administering po single dose of 100 mg/kg to different groups of five animals at various times before infection. All groups including an untreated control group, were then infected at the same time. Parasitemia was determined for each animal on day 3 post-infection, and percent of reduction of the level of parasitemia compared to levels for animals given no drug is determined.

[10] = system: chloroquine-resistant K1 strain of P. falciparum; assay: In vitro antimalarial semiautomated microdilution assay ([3H]-hypoxanthine incorporation), K1 strain; format: cell-based, Plasmodium falciparum; details: Plasmodium falciparum, K1, 72 h, read-out: IC50 (ng/ml) K1, chloroquine-resistant K1 strain, 72 h incubation
Method in brief: (§3)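 IC50 values come from Logit regression of [3H]-hypoxanthine uptake data. Parasites were intraerythrocytic P. falciparum forms taken from asynchronous stock cultures and tested by semiautomated microdilution.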

[11] = system: chloroquine-sensitive NF54 strain of P. falciparum; assay: In vitro antimalarial semiautomated microdilution assay ([3H]-hypoxanthine incorporation), NF54 strain; format: cell-based, Plasmodium falciparum; details: Plasmodium falciparum, NF54, 72 h, read-out: IC50 (ng/ml) NF54, chloroquine-sensitive NF54 strain, 72 h incubation
Method in brief: as §3

[12] = single dose po in SSV on day 1 post-infection, parasitemia day 3, nonlinear fitting
[13] = oral 10 mg/kg, read-out: Dog Oral Bioavailability 10 mg/kg
[14] = oral 25 mg/kg, read-out: Dog Oral Bioavailability 25 mg/kg
[15] = 3 × 1 mg/kg p.o. SSV on days 1, 2, 3 post-infection
[16] = 3 × 3 mg/kg p.o. SSV on days 1, 2, 3 post-infection
[17] = 3 × 3 mg/kg p.o. SSV on days 1, 2, 3 post-infection, percent reduction of parasitemia vs control on day 4
[18] = parasitemia reduction on day 3 post-infection

SMILES | Survival (days) 10 mg/kg SSV po [1] | Time of Recrudescence (P. berghei ANKA strain [2]) | % reduction of adult worms growth at day 49 after per os application of 400 mg/kg, TWR (%) [3] | Adult worms day 49, per os 400 mg/kg, DEAD WORM (%) [3] | ED99 [4, 12] | half-life ([5]; IV 10 mg/kg) | half-life ([5]; oral 25 mg/kg) | half-life ([6]; IV 10 mg/kg) | half-life ([6]; oral 10 mg/kg) | bioavailability [6, 13] | bioavailability [6, 14] | Survival (days) 3 × 10 mg/kg p.o. SSV (P. berghei ANKA strain [7]) | Activity (%) 3 × 10 mg/kg p.o. SSV (P. berghei ANKA strain [7]) | Survival (days) 1 × 30 mg/kg p.o. SSV (P. berghei ANKA strain [7]) | Activity (%) 1 × 30 mg/kg p.o. SSV (P. berghei ANKA strain [7]) | Cures 1 × 30 mg/kg p.o. SSV (P. berghei ANKA strain [7]) | Survival (P. berghei ANKA strain [8]; [15]) | Survival (P. berghei ANKA strain [8]; [16]) | Activity (%) (P. berghei ANKA strain [8]; [17]) | Prophylactic Activity (%) 24 h (P. berghei ANKA strain [9]; [18]) | also measured
CC(C)(N)CNC(=O)C[C@H]1CC[C@]2(CC1)OO[C@]1(O2)C2CC3CC(C2)CC1C3 [OZ277] | 9.3 days | 13.0 days | 0/0% | 0/0% | 4.4 mg/kg | 77.2 min | 90.5 min | 95 min | 148 min | 87.9% | 96.1% | 27.6 days | 100% | 10.4 days | 99.92% | 0/5 | 9.4 days | 14 days | 100% | 25% | Survival (days) 3 mg/kg SSV po ([1]; single 3 mg/kg po in SSV): 9.6 days; ED50 ([4]; single dose po in SSV on day 1 post-infection, parasitemia day 3, nonlinear fitting, read-out: ED50): 0.78 mg/kg; ED90 ([4]; po): 2.0 mg/kg; bioavailability ([5]; po, 10 mg/kg): 36.9%; bioavailability ([5]; po, 25 mg/kg): 44.1%; Activity (%) (P. berghei ANKA strain [8]; po, 1 mg/kg, 96 h): 83%; Cures (P. berghei ANKA strain [8]; po, 3 mg/kg, 720 h): 0\5; Prophylactic Activity (%) 72 h (P. berghei ANKA strain [9]; po, 100 mg/kg): 9%; Prophylactic Activity (%) 48 h (P. berghei ANKA strain [9]; [18]): 7%; Prophylactic Activity (%) 0 h (P. berghei ANKA strain [9]; [18]): 100%
Cc1ccc(S(=O)(=O)O)cc1.O=C(C[C@H]1CC[C@]2(CC1)OO[C@]1(O2)C2CC3CC(C2)CC1C3)N1CCNCC1 [OZ279] | 9.3 days | 15.0 days | 0% | 12% | 3.9 mg/kg | 100 min | 167 min | 178 min | 195 min | 32.8% | 55.7% | 25.4 days | 100% | 14.8 days | 99.95% | 0/5 | 8.8 days | 14.8 days | 100% | 97% | IC50 [10]: 0.21 ng/mL; IC50 [11]: 0.24 ng/mL; Activity (%) 3 mg/kg SSV po ([1]; single 3 mg/kg po in SSV, percent reduction in parasitemia on day 3): 99.42%; Activity (%) 10 mg/kg SSV po ([1]; single 10 mg/kg po in standard suspending vehicle (SSV) on day 1 post-infection, percent reduction in parasitemia on day 3): 99.98%; ED50 ([4]; po, single dose po in SSV on day 1 post-infection, parasitemia day 3, nonlinear fitting): 0.63 mg/kg; ED90 [4, 12]: 1.8 mg/kg; bioavailability ([5]; oral 10 mg/kg, read-out: Rat Oral Bioavailability 10 mg/kg): 37.2%; bioavailability ([5]; oral 25 mg/kg, read-out: Rat Oral Bioavailability 25 mg/kg): 71.1%; Activity (%) (P. berghei ANKA strain [8]; 3 × 1 mg/kg p.o. SSV on days 1, 2, 3 post-infection, percent reduction of parasitemia vs control on day 4): 83%; Prophylactic Activity (%) 48 h (P. berghei ANKA strain [9]; [18]): 27%; Prophylactic Activity (%) 72 h (P. berghei ANKA strain [9]; single 100 mg/kg po 72 h before infection, parasitemia reduction on day 3 post-infection): 14%; Prophylactic Activity (%) 0 h (P. berghei ANKA strain [9]; [18]): 100%
